Each structure is given as a SMILES string.

One assay has as its target yeast α-glucosidase (Saccharomyces cerevisiae, UniProt P53341). Description: In vitro α-glucosidase inhibition assay. The assay is classed as biochemical. The conditions noted are these: for Fold decrease of anti-α-glucosidase activity relative to compound 10e: compared with 4-ethylphenyl derivative 10e; for Fold decrease of inhibitory activity relative to compound 10g: compared with 2,6-dimethyl derivative 10g; for Fold increase of inhibitory activity relative to compound 10m: compared with 4-nitro derivative 10m.

Another assay deals with α-glucosidase (Saccharomyces cerevisiae, UniProt P53341). Description: Kinetic study of α-glucosidase inhibition. Format: biochemical, yeast.
Sequence of α-glucosidase (P53341 whole entry): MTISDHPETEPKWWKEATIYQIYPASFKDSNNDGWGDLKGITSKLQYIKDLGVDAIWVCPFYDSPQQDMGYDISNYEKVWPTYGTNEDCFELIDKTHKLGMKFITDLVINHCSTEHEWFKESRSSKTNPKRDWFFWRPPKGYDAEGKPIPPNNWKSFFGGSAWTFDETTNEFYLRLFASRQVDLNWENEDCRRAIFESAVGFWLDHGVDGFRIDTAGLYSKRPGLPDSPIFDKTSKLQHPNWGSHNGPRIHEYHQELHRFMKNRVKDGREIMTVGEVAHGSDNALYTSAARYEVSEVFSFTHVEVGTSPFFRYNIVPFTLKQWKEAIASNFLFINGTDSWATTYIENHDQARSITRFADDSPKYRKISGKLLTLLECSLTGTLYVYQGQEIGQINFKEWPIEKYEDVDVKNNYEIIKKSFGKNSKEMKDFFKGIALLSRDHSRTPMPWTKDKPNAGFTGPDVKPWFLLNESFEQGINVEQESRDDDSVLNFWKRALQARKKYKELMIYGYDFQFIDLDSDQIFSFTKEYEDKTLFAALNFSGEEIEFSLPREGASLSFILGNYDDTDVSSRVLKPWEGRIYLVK

Sequence of yeast α-glucosidase (P53341 whole entry): as above

For the molecule `NC(=S)N/N=C/c1cc2ccccc2nc1SCc1cn(CC(=O)Nc2ccccc2)nn1` [Compound 10a, (E)-2-(4-(((3-((2-Carbamothioylhydrazineylidene)methyl)quinolin-2-yl)thio)methyl)-1H-1,2,3-triazol-1-yl)-N-phenylacetamide], the “Fold decrease of anti-α-glucosidase activity relative to compound 10e” value on yeast α-glucosidase was 5.38 folds.
With `Cc1ccccc1NC(=O)Cn1cc(CSc2nc3ccccc3cc2/C=N/NC(N)=S)nn1` [Compound 10b, (E)-2-(4-(((3-((2-Carbamothioylhydrazineylidene)methyl)quinolin-2-yl)thio)methyl)-1H-1,2,3-triazol-1-yl)-N-(o-tolyl)acetamide], the “Fold decrease of inhibitory activity relative to compound 10g” value on yeast α-glucosidase worked out at 2.3 folds.
As for `Cc1ccc(NC(=O)Cn2cc(CSc3nc4ccccc4cc3/C=N/NC(N)=S)nn2)cc1` [Compound 10d, (E)-2-(4-(((3-((2-Carbamothioylhydrazineylidene)methyl)quinolin-2-yl)thio)methyl)-1H-1,2,3-triazol-1-yl)-N-(p-tolyl)acetamide], on yeast α-glucosidase, the “Fold decrease of anti-α-glucosidase activity relative to compound 10e” value stood at 6.97 folds.
On to `Cc1cccc(NC(=O)Cn2cc(CSc3nc4ccccc4cc3/C=N/NC(N)=S)nn2)c1C` [Compound 10f, (E)-2-(4-(((3-((2-Carbamothioylhydrazineylidene)methyl)quinolin-2-yl)thio)methyl)-1H-1,2,3-triazol-1-yl)-N-(2,3-dimethylphenyl)acetamide], for which, at yeast α-glucosidase, the “Fold decrease of inhibitory activity relative to compound 10g” value is on record as 1.6 folds.
Turning to `NC(=S)N/N=C/c1cc2ccccc2nc1SCc1cn(CC(=O)Nc2cccc([N+](=O)[O-])c2)nn1` [Compound 10k, (E)-2-(4-(((3-((2-Carbamothioylhydrazineylidene)methyl)quinolin-2-yl)thio)methyl)-1H-1,2,3-triazol-1-yl)-N-(3-nitrophenyl)acetamide], the “Fold increase of inhibitory activity relative to compound 10m” value at yeast α-glucosidase was 2.58 folds.
The same measure, in the same setting: as for `Cc1cc([N+](=O)[O-])ccc1NC(=O)Cn1cc(CSc2nc3ccccc3cc2/C=N/NC(N)=S)nn1` [Compound 10l, (E)-2-(4-(((3-((2-Carbamothioylhydrazineylidene)methyl)quinolin-2-yl)thio)methyl)-1H-1,2,3-triazol-1-yl)-N-(2-methyl-4-nitrophenyl)acetamide], the figure is 1.82 folds.
By Ki is commonly meant a measure of affinity in units of concentration, obtained from inhibition or displacement. The low end stands for a stronger hold on the target, the high end for a looser hold on the target. Regarding `NC(=S)N/N=C/c1cc2ccccc2nc1SCc1cn(CC(=O)NCCc2ccccc2)nn1` [Compound 10n, (E)-2-(4-(((3-((2-Carbamothioylhydrazineylidene)methyl)quinolin-2-yl)thio)methyl)-1H-1,2,3-triazol-1-yl)-N-phenethylacetamide], affinity on α-glucosidase was put at a Ki of 48.1 µM. For the same molecule, the “Mode of α-glucosidase inhibition” value on α-glucosidase (Lineweaver–Burk plot, inhibitor 0, 12.1, 24.2, 48.4 µM) is “competitive α-glucosidase inhibitor”. Also, the “Improving the inhibitory effect (times more potent than acarbose)” value on yeast α-glucosidase was found to be 15.5.
